These results are taken from ChEMBL document CHEMBL4024707, “Using gene expression database to uncover biology functions of 1,4-disubstituted 1,2,3-triazole analogues synthesized via a copper (I)-catalyzed reaction” (Eur J Med Chem, 2017).

Each structure is given as a SMILES string. The source made the active and inactive calls. The rule behind the calls is not given here.

Assay [1] relates to Hep 3B2. The assay is described as follows: Cell cycle arrest in human Hep3B cells assessed as accumulation at G2/M phase at 40 uM after 72 hrs by propidium iodide staining based flow cytometry (reference value: 28.7 to 32.3%). In kind it is functional. In general terms: A flow cytometer gives signals particle by particle.
Assay [2] has as its system Hep 3B2. In words: Cell cycle arrest in human Hep3B cells assessed as accumulation at sub-G1 phase at 40 uM after 24 hrs by propidium iodide staining based flow cytometry (reference value: 1.9 to 3.6%). The format is functional.
Assay [3] concerns Hep 3B2. In words: Cell cycle arrest in human Hep3B cells assessed as accumulation at S phase at 40 uM after 48 hrs by propidium iodide staining based flow cytometry (reference value: 20.8 to 24%). The format is functional.
For assay [4], the system named is Hep 3B2. In words: Cell cycle arrest in human Hep3B cells assessed as accumulation at G0/G1 phase at 5 uM after 24 hrs by propidium iodide staining based flow cytometry (reference value: 36.3 to 39.0%). The format is functional.
Assay [5] has as its system Hep 3B2. The assay is described as follows: Cell cycle arrest in human Hep3B cells assessed as accumulation at S phase at 40 uM after 24 hrs by propidium iodide staining based flow cytometry (reference value: 22.6 to 27.1%). The format is functional.
Assay [6] has as its system Hep 3B2. In words: Growth inhibition of human Hep3B cells at 10 uM up to 72 hrs by MTT assay. The format is functional, cell-based. (Tetrazolium dyes change colour on reduction, which living cells bring about.)
For assay [7], the system named is Hep 3B2. The assay is described as follows: Cell cycle arrest in human Hep3B cells assessed as accumulation at G2/M phase at 40 uM after 24 hrs by propidium iodide staining based flow cytometry (reference value: 31.8 to […]%). The format is functional.
Assay [8] has as its system Hep 3B2. In words: Cell cycle arrest in human Hep3B cells assessed as accumulation at G0/G1 phase at 2.5 uM after 72 hrs by propidium iodide staining based flow cytometry (reference value: 41.6 to 46.2%). In kind it is functional.
Assay [9] concerns Hep 3B2. The assay is described as follows: Induction of autophagy in human Hep3B cells at 40 uM after 24 hrs by acridine orange staining based flow cytometry (reference value: 1.1 to 1.3%). The format is functional.
The test system of assay [10] is Hep 3B2. In words: Down regulation of FUT1 expression in human Hep3B cells at 1 uM after 6 to 24 hrs by L1000 expression profiling method relative to control. In kind it is functional.
The test system of assay [11] is Hep 3B2. The assay is described as follows: Down regulation of FAM69A expression in human Hep3B cells at 1 uM after 6 to 24 hrs by L1000 expression profiling method relative to control. In kind it is functional.
The test system of assay [12] is Hep 3B2. The assay is described as follows: Cytotoxicity against human Hep3B cells at 20 uM after 24 hrs by MTT assay relative to control. In kind it is functional.
In assay [13] the test system is Hep 3B2. The assay is described as follows: Down regulation of FZD1 expression in human Hep3B cells at 1 uM after 6 to 24 hrs by L1000 expression profiling method relative to control. In kind it is functional.
Assay [14] has as its target Glycogen synthase kinase-3 alpha (Homo sapiens) (UniProt P49840). The assay is described as follows: Inhibition of GSK3alpha phosphorylation at Ser21 in human Hep3B cells assessed as ratio of phosphorylated […] to beta-actin level at 10 uM after 48 hrs by Western blot analysis. In kind it is cell-based. On the technique in general: A western blot detects proteins with antibodies after separation by electrophoresis.

Assay [15] concerns Hep 3B2. The assay is described as follows: Up regulation of CCND1 expression in human Hep3B cells at 1 uM after 6 to 24 hrs by L1000 expression profiling method relative to control. In kind it is functional.
Assay [16] deals with Hep 3B2. In words: Up regulation of RPS6KA1 expression in human Hep3B cells at 1 uM after 6 to 24 hrs by L1000 expression profiling method relative to control. In kind it is functional.
Assay [17] concerns Hep 3B2. In words: Down regulation of ZNF586 expression in human Hep3B cells at 1 uM after 6 to 24 hrs by L1000 expression profiling method relative to control. In kind it is functional.
Assay [18] deals with Hep 3B2. The assay is described as follows: Down regulation of RTN2 expression in human Hep3B cells at 1 uM after 6 to 24 hrs by L1000 expression profiling method relative to control. In kind it is functional.
For assay [19], the system named is Hep 3B2. The assay is described as follows: Growth inhibition of human Hep3B cells after 48 hrs by MTT assay. In kind it is functional, cell-based.
Assay [20] has as its system Hep 3B2. The assay is described as follows: Induction of apoptosis in human Hep3B cells assessed as ratio of cleaved caspase-3 to beta actin level at 10 uM after 48 hrs in absence of curcumin by Western blot analysis. The format is functional.
Assay [21] relates to Hep 3B2. In words: Down regulation of TGFB3 expression in human Hep3B cells at 1 uM after 6 to 24 hrs by L1000 expression profiling method relative to control. The format is functional.
For assay [22], the system named is Hep 3B2. In words: Cell cycle arrest in human Hep3B cells assessed as accumulation at S phase at 10 uM after 48 hrs in presence of curcumin by propidium iodide staining based flow cytometry (reference value: 23.8 +/- 1.9%). In kind it is functional.
Assay [23] deals with Hep 3B2. The assay is described as follows: Down regulation of HTRA1 expression in human Hep3B cells at 1 uM after 6 to 24 hrs by L1000 expression profiling method relative to control. In kind it is functional.
Assay [24] deals with Hep 3B2. In words: Down regulation of ARL4C expression in human Hep3B cells at 1 uM after 6 to 24 hrs by L1000 expression profiling method relative to control. In kind it is functional.
Assay [25] concerns Hep 3B2. The assay is described as follows: Down regulation of PPP1R13B expression in human Hep3B cells at 1 uM after 6 to 24 hrs by L1000 expression profiling method relative to control. The format is functional.
Assay [26] deals with Hep 3B2. The assay is described as follows: Down regulation of SUPV3L1 expression in human Hep3B cells at 1 uM after 6 to 24 hrs by L1000 expression profiling method relative to control. In kind it is functional.
In assay [27] the test system is Hep 3B2. The assay is described as follows: Down regulation of PIK3CA expression in human Hep3B cells at 1 uM after 6 to 24 hrs by L1000 expression profiling method relative to control. In kind it is functional.
The test system of assay [28] is Hep 3B2. In words: Down regulation of PTK2B expression in human Hep3B cells at 1 uM after 6 to 24 hrs by L1000 expression profiling method relative to control. The format is functional.
Assay [29] relates to Hep 3B2. The assay is described as follows: Down regulation of TFAP2A expression in human Hep3B cells at 1 uM after 6 to 24 hrs by L1000 expression profiling method relative to control. In kind it is functional.
For assay [30], the system named is Hep 3B2. The assay is described as follows: Down regulation of ARNT2 expression in human Hep3B cells at 1 uM after 6 to 24 hrs by L1000 expression profiling method relative to control. The format is functional.
For assay [31], the system named is Hep 3B2. In words: Down regulation of CD40 expression in human Hep3B cells at 1 uM after 6 to 24 hrs by L1000 expression profiling method relative to control. The format is functional.
The subject of assay [32] is Hep 3B2. In words: Down regulation of CHAC1 expression in human Hep3B cells at 1 uM after 6 to 24 hrs by L1000 expression profiling method relative to control. The format is functional.
Assay [33] has as its system Hep 3B2. In words: Down regulation of FOS expression in human Hep3B cells at 1 uM after 6 to 24 hrs by L1000 expression profiling method relative to control. In kind it is functional.
The test system of assay [34] is Hep 3B2. The assay is described as follows: Down regulation of DUSP11 expression in human Hep3B cells at 1 uM after 6 to 24 hrs by L1000 expression profiling method relative to control. The format is functional.
The test system of assay [35] is Hep 3B2. The assay is described as follows: Up regulation of CDCA4 expression in human Hep3B cells at 1 uM after 6 to 24 hrs by L1000 expression profiling method relative to control. The format is functional.
Assay [36] has as its system Hep 3B2. In words: Cell cycle arrest in human Hep3B cells assessed as accumulation at G2/M phase at 10 uM after 48 hrs in absence of curcumin by propidium iodide staining based flow cytometry (reference value: 36.6 +/- 2.9%). In kind it is functional.
Assay [37] deals with Hep 3B2. In words: Down regulation of SNX7 expression in human Hep3B cells at 1 uM after 6 to 24 hrs by L1000 expression profiling method relative to control. The format is functional.

Sequence of Glycogen synthase kinase-3 alpha (Homo sapiens) (P49840 2-483 limits assumed): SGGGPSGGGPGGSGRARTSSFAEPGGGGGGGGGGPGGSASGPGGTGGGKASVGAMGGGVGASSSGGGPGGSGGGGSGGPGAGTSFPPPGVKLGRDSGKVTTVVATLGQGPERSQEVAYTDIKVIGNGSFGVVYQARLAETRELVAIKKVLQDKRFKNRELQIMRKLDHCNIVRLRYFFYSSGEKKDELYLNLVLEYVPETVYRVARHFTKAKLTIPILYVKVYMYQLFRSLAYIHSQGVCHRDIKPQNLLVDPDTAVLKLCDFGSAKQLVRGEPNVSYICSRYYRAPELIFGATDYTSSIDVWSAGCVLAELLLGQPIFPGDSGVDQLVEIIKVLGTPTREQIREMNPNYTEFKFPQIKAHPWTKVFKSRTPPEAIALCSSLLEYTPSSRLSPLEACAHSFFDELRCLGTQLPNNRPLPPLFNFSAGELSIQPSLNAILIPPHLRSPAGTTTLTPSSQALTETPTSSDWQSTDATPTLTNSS

With `COc1ccc(CNC(=O)Nc2ncc([N+](=O)[O-])s2)cc1`, the Activity in assay [1] was 42.8%; in assay [2], 6.5%; in assay [3], 14.9%; in [4] it was 32.5%; in assay [5] it was 21.1%; in assay [7], 37.6%. For the same compound, the Activity in assay [8] turned out to be 42.3%; in assay [9], 7.1%. For the same compound, in assay [6], the “growth inhibition (GI)” value is “Active”.
Consider `O=C1COc2ccccc2N1Cc1cn(CCC2OCCO2)nn1`, for which the log2FC was -3.2524 in assay [10]; -4.3309 in assay [11]; -3.5324 in [13]; 3.2544 in [15]; 3.2908 in assay [16]; -4.0824 in assay [17]. The log2FC in assay [18] was -4.1606; in [21] it was -3.4573; in assay [23] it was -3.2036; in assay [24] it was -3.744; in [25], -3.1647; in assay [26], -4.4808. Also, the log2FC in assay [27] is listed as -4.2586; in assay [28], -3.3744; in [29] it was -3.78; in assay [30], -5.0177; in [31], -3.3087; in [32], -4.0849. Further, the log2FC in assay [33] is given as -3.1627; in assay [34], -3.3243; in [35] it was 3.2705; in [37], -4.1511. Moreover, the Activity in [12] is given as 24.1%; in assay [22], 8.8%; in assay [36] it was 37.1%. In addition, the Ratio in [14] is 0.9; in assay [20], 2.8. Further, the “growth inhibition (GI)” value in [19] is “Dose-dependent effect”.
